# Tests used:
# Assay type in all cases: in vivo, Nicotiana tabacum (Xanthi nc)
# PR-1a protein [1] = test: Induction and quantification of PR-1a protein after leaf infiltration of tobacco; conditions: for PR-1a induction, result in words: leaf infiltration; for PR-1a protein following treatment, 96 h / PR-1a protein following treatment, 192 h: compared to 1 mM SA at 96 h
# Procedure: (§1) Tobacco (Nicotiana tabacum) plants (Xanthi nc) were grown in Promix PGX at 25 C and a 16/8 h photoperiod. Plants were fed a 1 g/L concentration of 20-20-20 (N-P-K fertilizer) twice a week. The Xanthi-nc variety carries the N-gene for resistance to TMV.
# For evaluating pathogenesis-related protein induction, test compounds were dissolved in ethanol and dispersed in water (0.1% v/v ethanol). The most recently fully-expanded leaf on each plant was selected for infiltration. Infiltration was accomplished using a 5 mL disposable syringe (without needle). The solution was forced through the stomates of the abaxial surface of the leaf. Treatment solution was infiltrated into the leaf until the leaf was saturated.
# All harvests were performed 96 hours after infiltration unless indicated. Briefly, treated leaves were de-veined, the remaining tissue was cut into 1 cm×1 cm pieces and vacuum-infiltrated with ice-cold extraction buffer. […] The extracellular fluid containing the acidic PR-1a protein was collected by centrifugation at 1000 g for 10 minutes at 4° C. After collection, samples were stored at −80° C. Protein concentrations of extracellular fluids were determined by Bradford dye reagent (BioRad, Richmond, Calif.) used BSA as a standard. Eight to ten μg of each protein sample were analyzed by electrophoresis on 14% Native Polyacrylamide gels (14% pre-cast Tris-Glycine gels; Invitrogen, Carlsbad, Calif.). Gels were stained with colloidal blue staining reagent (Invitrogen), and PR-1a protein was quantitated using a Model GS-710 densitometer (BioRad).
# [2] = tested on: tobacco mosaic virus (TMV); test: Resistance measurement: TMV lesion diameter after spray application; conditions: for Percent decrease in TMV-lesion diameter: percent reduction in the diameter of TMV lesions
# Procedure: as §1
# (§2) Test compounds were dissolved in ETOH and dispersed in water (0.1% v/v ethanol). Spray solutions were amended with 0.25% crop oil concentrate (v/v). Plants were sprayed to drip, and moved to a glasshouse.
# After spraying, one leaf per plant was inoculated with 1.0 ug TMV (U1; vulgare strain) at the times indicated. Six days post-inoculation, leaves were removed and the diameters of 20 necrotic lesions were measured per leaf. The mean lesion diameters from at least four plants per treatment were measured. Lesion diameter measures were subjected to two way analysis of variance (ANOVA) and Duncan's multiple range procedure at p=0.05.
# PR-1a protein [3] = test: Induction of PR-1a protein in Xanthi-nc tobacco after spray application; conditions: which equals 1
# Procedure: as §1, with “TMV. Plants were treated with chemicals and/or virus at 5-6 weeks after sowing, when they had 5-7 fully-expanded leaves.” for “TMV.”
# Proteins were harvested by the method of Yalpani et al. (1991; Plant Cell. 3:809-818). All harvests were performed 96 hours after infiltration unless indicated. Briefly, treated leaves were de-veined, the remaining tissue was cut into 1 cm×1 cm pieces and vacuum-infiltrated with ice-cold extraction buffer. Leaf tissue was blotted to remove excess buffer, and placed in a spin column assembly (Yalpani et al., 1991). The extracellular fluid containing the acidic PR-1a protein was collected by centrifugation at 1000 g for 10 minutes at 4° C. After collection, samples were stored at −80° C. Protein concentrations of extracellular fluids were determined by Bradford dye reagent (BioRad, Richmond, Calif.) used BSA as a standard. Eight to ten μg of each protein sample were analyzed by electrophoresis on 14% Native Polyacrylamide gels (14% pre-cast Tris-Glycine gels; Invitrogen, Carlsbad, Calif.). Gels were stained with colloidal blue staining reagent (Invitrogen), and PR-1a protein was quantitated using a Model GS-710 densitometer (BioRad).
# as §2
# [4] = 1 mM spray 48 h before TMV inoculation
# [5] = 1 mM spray 96 h before TMV inoculation
Compound,"PR-1a induction, result in words (PR-1a protein [1])",Percent decrease in TMV-lesion diameter [2] [%],other results
O=C(O)c1ccccc1F [2-Fluorobenzoic acid],significantly reduced activity,–,–
"O=C(O)c1c(O)c(Cl)cc(Cl)c1Cl [3,5,6-Trichlorosalicylic acid]",–,45.1,–
"O=C(O)c1c(O)c(Cl)cc(Cl)c1O [3,5-Dichloro-6-hydroxysalicylic acid]",–,48.3,–
"O=C(O)c1cc(Cl)cc(Cl)c1O [3,5-Dichlorosalicylic acid, reference compound]",showed the greatest induction of PR-1a,36.6,"PR-1a protein following treatment, 96 h (PR-1a protein [1]; 1 mM, which equals 1): 1.83; PR-1a protein following treatment, 192 h (PR-1a protein [1]; 1 mM, which equals 1): 4.66"
"O=C(O)c1cc(F)cc(F)c1O [3,5-Difluorosalicylic acid]",more induction at 96 hours than the corresponding chlorinated salicylates,55.0,"Lesion diameter [2, 4]: 2.04 AB mm; Lesion diameter [2, 5]: 1.85 A mm; Reduction of TMV-lesion size / resistance to TMV, result in words ([2]; spray application): statistically equal to that induced by 5 mM Salicylic acid; PR-1a protein following treatment, 96 h (PR-1a protein [1]; 1 mM, which equals 1): 3.64; PR-1a protein following treatment, 192 h (PR-1a protein [1]; 1 mM, which equals 1): 3.21"
"O=C(O)c1cc([N+](=O)[O-])cc([N+](=O)[O-])c1O [3,5-Dinitrosalicylic acid]",completely deactivated,–,"Mean PR Induction (relative induction of PR-1a protein) (PR-1a protein [1]; 1 mM, 96 h post infiltration, compared to 1 mM SA, which equals 1): 0"
O=C(O)c1cc(F)cc(Cl)c1O [3-Chloro-5-fluorosalicylic acid],–,34,–
O=C(O)c1cccc(Cl)c1O [3-Chlorosalicylic acid],–,55.1,–
O=C(O)c1cc(Cl)cc(F)c1O [3-Fluoro-5-chlorosalicylic acid],–,47.4,–
O=C(O)c1cccc(F)c1O [3-Fluorosalicylic acid],–,34.4,–
O=C(O)c1ncccc1O [3-Hydroxypicolinic acid],induced PR-1a accumulation more than equimolar SA,–,–
COc1cccc(C(=O)O)c1O [3-Methoxysalicylic acid],–,8.9,–
O=C(O)c1cccc([N+](=O)[O-])c1O [3-Nitrosalicylic acid],decreased activity,–,–
Nc1ccc(C(=O)O)c(O)c1 [4-Aminosalicylic acid],–,22.9,–
"O=C(O)c1ccc(Cl)cc1O [4-Chlorosalicylic acid, reference compound]",–,30.2,–
O=C(O)c1ccc(F)cc1O [4-Fluorosalicylic acid],–,36.2,–
COc1ccc(C(=O)O)c(O)c1 [4-Methoxysalicylic acid],–,17.6,–
"O=C(O)c1cc(Cl)ccc1O [5-Chlorosalicylic acid, reference compound]",–,38.7,"PR-1a protein following treatment, 96 h (PR-1a protein [1]; 1 mM, which equals 1): 1.02; PR-1a protein following treatment, 192 h (PR-1a protein [1]; 1 mM, which equals 1): 1.75"
O=C(O)c1cc(F)ccc1O [5-Fluorosalicylic acid],more induction at 96 hours than the corresponding chlorinated salicylates,38.0,"PR-1a protein following treatment, 96 h (PR-1a protein [1]; 1 mM, which equals 1): 1.30; PR-1a protein following treatment, 192 h (PR-1a protein [1]; 1 mM, which equals 1): 1.74"
COc1ccc(O)c(C(=O)O)c1 [5-Methoxysalicylic acid],–,9.7,–
O=C(O)c1cc([N+](=O)[O-])ccc1O [5-Nitrosalicylic acid],decreased activity,–,–
O=C(O)c1c(O)cccc1F [6-Fluorosalicylic acid],–,24.3,–
COc1cccc(O)c1C(=O)O [6-Methoxysalicylic acid],–,13.3,–
O=C(O)c1ccccc1 [Benzoic acid],unable to induce PR-1a accumulation,–,–
"CCOC(=O)C(C)OC(=O)c1cc(Oc2ccc(C(F)(F)F)cc2Cl)ccc1[N+](=O)[O-] (centres unmarked) [Lactofen, 1-(carboxyethoxy) ethyl 5-[2-chloro-4-(tri-fluoromethyl)phenoxy]-2-nitrobenzoate]",–,–,"PR-1a (relative induction) (PR-1a protein [3]; 290 ppm Lactofen, harvested 96 hours after spray application, compared to 1 mM SA): 0.44; PR-1a (relative induction) (PR-1a protein [3]; 1450 ppm Lactofen, harvested 96 hours after spray application, compared to 1 mM SA): 2.00"
"O=C([O-])c1ccccc1O.[Na+] [NaSA, sodium salicylate]",–,–,"PR-1a (relative induction) (PR-1a protein [3]; 1600 ppm NaSA, harvested 96 hours after spray application, compared to 1 mM SA): 1.00; PR-1a (relative induction) (PR-1a protein [3]; 8000 ppm NaSA, harvested 96 hours after spray application, compared to 1 mM SA): 4.56; PR-1a (relative induction) (PR-1a protein [3]; NaSA 1600 mg/l, 48 hours after application, compared to infiltration with 1 mM SA at 96 h): 0.34; PR-1a (relative induction) (PR-1a protein [3]; NaSA 1600 mg/l, 96 hours after application, compared to infiltration with 1 mM SA at 96 h): 1.02; Lesion diameter ([2]; NaSA 1600 mg/l, 48 hours after application): 1.17 B mm; Lesion diameter ([2]; NaSA 1600 mg/l, 96 hours after application): 1.75 AB mm"
"O=C(O)c1ccccc1O [Salicylic acid, reference compound]",–,–,"Lesion diameter [2, 4]: 2.20 BC mm; Lesion diameter [2, 5]: 2.52 B mm; Lesion diameter ([2]; 5 mM spray 48 h before TMV inoculation): 1.88 A mm; Lesion diameter ([2]; 5 mM spray 96 h before TMV inoculation): 1.68 A mm; PR-1a protein following treatment, 96 h (PR-1a protein [1]; 1 mM, which equals 1): 1.00; PR-1a protein following treatment, 192 h (PR-1a protein [1]; 1 mM, which equals 1): 1.46"
O=C(O)c1ccccc1S [Thiosalicylic acid],significantly reduced activity,–,–
Salicylic acid/Sodiumsalicylate [reference compound],–,30.1,"Mean PR Protein Induction (PR-1a protein [1]; 1 mM, 96 h post infiltration, compared to 1 mM SA, which equals 1 (Table 5)): 1.0"

# Reference: US20050050587A1, “Inducers of plant disease resistance” (priority 2003, published 2005)
